Assay results from article PMC11211886 (Frontiers in Pharmacology, 2024).

How the values were obtained:
CYP2C19 = assay: CYP induction in human hepatocytes, CYP2C19 enzyme activity; type: in vitro ADME
Method: […] […] […] Enzyme activity for each CYP isoform was reported as a fold change over vehicle control and the percent of positive control (detailed calculation in Supplementary 1.1). Hepatocytes were harvested with a lysis buffer from RNeasy 96 Kit (Qiagen Inc., Germantown, MD, USA) to isolate RNA, which was analyzed by real-time quantitative polymerase chain reaction (RT-PCR). […] Emax (the maximal observed induction) and EC50 (the concentration that supports half-maximal induction) were estimated by non-linear regression of fold increase in CYP mRNA expression versus concentration plots.
The fold of vehicle control and the percent of positive control were calculated with the formulas below:
Fold of vehicle control = CYPs activity of test compound (or positive control) treated sample / CYPs activity of vehicle control treated sample
% of positive control = [(fold change in treated sample)-1] / [(fold change in positive control)-1] × 100
Based on the enzyme activity, a minimum of 2-fold increase compared to vehicle control for the positive control and ≥40% of the positive control for the test article was considered as the cutoff for a positive signal in in vitro induction assay.

OATP1B1 = target: T1, OATP1B1 (Homo sapiens, UniProt Q9Y6L6); assay: OATP1B1 inhibition, β-estradiol 17-(β-D-glucuronide) uptake in transfected HEK293 cells
T1 sequence (Q9Y6L6 1-691): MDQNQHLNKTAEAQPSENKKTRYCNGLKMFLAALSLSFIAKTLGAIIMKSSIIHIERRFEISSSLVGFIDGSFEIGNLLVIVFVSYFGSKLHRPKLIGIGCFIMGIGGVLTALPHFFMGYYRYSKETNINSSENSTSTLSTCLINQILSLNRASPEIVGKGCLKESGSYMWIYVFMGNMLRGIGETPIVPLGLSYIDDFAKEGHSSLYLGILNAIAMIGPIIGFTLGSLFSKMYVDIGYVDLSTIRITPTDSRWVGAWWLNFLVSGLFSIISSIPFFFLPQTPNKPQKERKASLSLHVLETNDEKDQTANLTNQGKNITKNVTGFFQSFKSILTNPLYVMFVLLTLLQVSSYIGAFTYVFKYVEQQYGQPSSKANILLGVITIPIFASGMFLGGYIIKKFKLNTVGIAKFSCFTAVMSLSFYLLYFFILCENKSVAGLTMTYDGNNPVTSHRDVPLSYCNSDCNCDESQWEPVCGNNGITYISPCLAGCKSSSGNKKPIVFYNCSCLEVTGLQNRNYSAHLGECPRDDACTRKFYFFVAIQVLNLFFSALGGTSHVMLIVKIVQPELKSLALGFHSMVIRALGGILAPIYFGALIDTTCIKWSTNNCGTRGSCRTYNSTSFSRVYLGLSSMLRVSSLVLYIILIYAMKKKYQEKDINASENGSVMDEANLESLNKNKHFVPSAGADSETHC
Method: The pre-incubation solutions were removed, and incubation solutions containing the inhibitors and probe substrates (or transport buffer containing an equal volume of vehicle control and probe substrates) were added and incubated at 37°C for 2 min (5 min for OATP1B3). The probe substrate for OAT1 was 4-aminohippuric acid (10 μM), for OAT3 was estrone 3-sulfate (10 μM), for OCT2 was metformin (100 μM), for OATP1B1 was β-estradiol 17-(β-D-glucuronide) (5 μM), for OATP1B3 was β-estradiol 17-(β-D-glucuronide) (10 μM), and for MATE1 and MATE2-K was tetraethylammonium (10 μM). After incubation, cells were washed three times with ice-cold transport buffer (25 mM HEPES, pH 7.4, pH 8.0 for overexpressing MATE1 and MATE2-K HEK293 cells) and lysed in distilled water. The concentrations of probe substrates were determined by LC-MS/MS, and a BCA Kit (Solarbio ®Life Sciences, Beijing, China) was used to determine the protein content in the cell lysate.
where C is the concentration of the drug in the cell lysate (nM), P is the protein concentration of the cell lysate (mg/mL), and T is the incubation time (minute). Uptake ratetest compound is the uptake rate of the substrate in the presence of the test compound. Uptake ratevehicle control is the uptake rate of the substrate in the presence of the vehicle control. Uptake ratepassive is the uptake rate of the substrate in the presence of the positive inhibitor at the top test concentration.

C[C@H](Nc1ncnc(N)c1C#N)c1cc2ncc(Cl)n2nc1-c1ccccc1 [Amdizalisib] was tested, and the “Enzyme activity Percent of PC (%)” value (CYP2C19; CYP2C19, donor eight, 0.3 µM) was 2.58%, the “Enzyme activity Percent of PC (%)” value (CYP2C19; CYP2C19, donor eight, 3 µM) was -3.72% and the “Enzyme activity Percent of PC (%)” value (CYP2C19; CYP2C19, donor eight, 20 µM) was -16.6%. For the same compound, the “Enzyme activity Percent of PC (%)” value (CYP2C19; CYP2C19, donor four, 0.3 µM) was -2.17%, the “Enzyme activity Percent of PC (%)” value (CYP2C19; CYP2C19, donor four, 3 µM) was -13.5% and the “Enzyme activity Percent of PC (%)” value (CYP2C19; CYP2C19, donor four, 20 µM) was -28.3%. For the same compound, the “Enzyme activity Percent of PC (%)” value (CYP2C19; CYP2C19, donor one, 0.3 µM) was 6.39%, the “Enzyme activity Percent of PC (%)” value (CYP2C19; CYP2C19, donor one, 3 µM) was 1.83% and the “Enzyme activity Percent of PC (%)” value (CYP2C19; CYP2C19, donor one, 20 µM) was -19.2%. The “induction of CYP2C19 enzyme activity” value (CYP2C19; up to 20 µM, all three donors) was “no induction potential”, the IC50 (OATP1B1) was 7.27 µM and the Percentage transported (OATP1B1; human, 2 min, 0.3 μM, pH 7.4) was 113%. It also gave an Uptake rate (OATP1B1; human, 2 min, 0.3 μM, pH 7.4) of 59.0±1.42 pmol/mg protein/min, a Percentage transported (OATP1B1; human, 2 min, 1 μM, pH 7.4) of 105% and an Uptake rate (OATP1B1; human, 2 min, 1 μM, pH 7.4) of 55.1±2.95 pmol/mg protein/min. It also gave a Percentage transported (OATP1B1; human, 2 min, 3 μM, pH 7.4) of 86.5%, an Uptake rate (OATP1B1; human, 2 min, 3 μM, pH 7.4) of 47.2±3.13 pmol/mg protein/min and a Percentage transported (OATP1B1; human, 2 min, 10 μM, pH 7.4) of 32.7%. The Uptake rate (OATP1B1; human, 2 min, 10 μM, pH 7.4) was 19.3±4.10 pmol/mg protein/min, the Percentage transported (OATP1B1; human, 2 min, 30 μM, pH 7.4) was 8.04% and the Percentage transported (OATP1B1; human, 2 min, 100 μM, pH 7.4) was -3.17%. For the same compound, the Uptake rate (OATP1B1; human, 2 min, 100 μM, pH 7.4) was 1.46±0.141 pmol/mg protein/min, the “calculated R value (OATP1B1)” value (OATP1B1; human, 2 min, pH 7.4) was 3.8 and the inhibition at 2 min, 0.3 µM (OATP1B1; human, pH 7.4) was -12.5%. The inhibition at 2 min, 1 µM (OATP1B1; human, pH 7.4) was -4.64%, the inhibition at 2 min, 3 µM (OATP1B1; human, pH 7.4) was 13.5% and the inhibition at 2 min, 10 µM (OATP1B1; human, pH 7.4) was 67.3%. It also gave an inhibition at 2 min, 30 µM (OATP1B1; human, pH 7.4) of 92% and an inhibition at 2 min, 100 µM (OATP1B1; human, pH 7.4) of 103%.
